The test system of one data set is JAK1/JAK3 pathway. Briefly: Selectivity: JAK1/JAK3 pathway, IL-2-induced p-STAT5 in human PBMC, western blot. The following applies: IL-2 100 ng/mL. It is filed as cell-based. As to the method:
Commercial human PBMC (peripheral blood mononuclear cells) were centrifuged (400 g) for 10 min, counted and seeded into 6-well plates (5 million/well). The compounds to be tested were added for 2 hours and then IL-2 (100 ng/mL) was added to stimulate cells for 15 minutes. Finally, p-STAT5/STAT5 and internal reference protein β-actin were detected by Western blot.
(In general: Immunoblotting shows a protein as a band on a membrane.)

For a further data set, the target named is JAK1 JH1 (Homo sapiens (Human), UniProt P23458). Put plainly: Competitive binding assay (kinase-tagged phage, qPCR), JAK1 JH1. On the procedure:
For most assays, kinase-tagged T7 phage strains were prepared in an E. coli host derived from the BL21 strain. E. coli were grown to log-phase and infected with T7 phage and incubated with shaking at 32° C. until lysis. The lysates were centrifuged and filtered to remove cell debris. The remaining kinases were produced in HEK-293 cells and subsequently tagged with DNA for qPCR detection. Streptavidin coated magnetic beads were treated with biotinylated small molecule ligands for 30 minutes at room temperature to generate affinity resins for kinase assays. The liganded beads were blocked with excess biotin and washed with blocking buffer (SeaBlock (Pierce), 1% BSA, 0.05% Tween 20, 1 mM DTT) to remove unbound ligand and to reduce non-specific binding. […] Test compounds were prepared as 111X stocks in 100% DMSO. Dissociation constants (Kds) were determined using an 11-point 3-fold compound dilution series with three DMSO control points. All compounds for Kd measurements are distributed by acoustic transfer (non-contact dispensing) in 100% DMSO. The compounds were then diluted directly into the assays such that the final concentration of DMSO was 0.9%. All reactions performed in polypropylene 384-well plate. Each was a final volume of 0.02 ml. The assay plates were incubated at room temperature with shaking for 1 hour and the affinity beads were washed with wash buffer (1×PBS, 0.05% Tween 20). The beads were then re-suspended in elution buffer (1×PBS, 0.05% Tween 20, 0.5 μM nonbiotinylated affinity ligand) and incubated at room temperature with shaking for 30 minutes. The kinase concentration in the eluates was measured by qPCR.
An 11-point 3-fold serial dilution of each test compound was prepared in 100% DMSO at 100× final test concentration and subsequently diluted to 1× in the assay (final DMSO concentration=1%). Most Kds were determined using a compound top concentration=30,000 nM. If the initial Kd determined was <0.5 nM (the lowest concentration tested), the measurement was repeated with a serial dilution starting at a lower top concentration.
Binding constants (Kds) were calculated with a standard dose-response curve using the Hill equation: […]
The Hill Slope was set to −1.
Curves were fitted using a non-linear least square fit with the Levenberg-Marquardt algorithm.
(In qPCR the cycle at which signal appears reflects the starting amount.)

In data set [1] the test system is production of CXCL-10 stimulated by IFNα in PBMC. Put plainly: ELISA: production of CXCL-10 stimulated by IFNα in PBMC. The following applies: CXCL-10 production stimulated by IFNα in PBMC; for IC50: ELISA. In kind it is cell-based. On the procedure:
• 1. Soak plate: Add 300 μL 1×washing solution and let stand for 30 seconds. After discarding the washing solution, dry the microporous plate on absorbent paper. • 2. Add standard: Add 100 μL of 2-fold standard to standard well. Add 100 μL standard dilution (serum/plasma sample) or culture medium (cell culture supernatant sample) to blank well. • 3. Add sample: Serum/plasma: Add 50 μL 1×assay buffer and 50 μL sample to sample well. Cell culture supernatant: Add 100 μL cell culture supernatant to sample well. • 4. Add detection antibody: Add 50 μL diluted detection antibody (1:100 diluted) to each well. Make sure steps 4, 5 and 6 are added continuously without interruption. The sampling process was completed within 15 minutes. • 5. Incubation: Use sealing plate film to seal the plate. shake at 300 rpm and incubate for 2 hours at room temperature. • 6. Washing: Discard the liquid, add 300 μL of washing solution and wash the plate 6 times. pat dry on blotting paper after each wash. To obtain the desired experimental performance, the residual liquid must be completely removed. • 7. Enzyme addition: Add 100 μL diluted horseradish peroxidase labeled streptavidin to each well (1:100 diluted). • 8. Incubation: Seal the plate with a new sealing film. shake at 300 rpm and incubate at room temperature for 45 minutes. • 9. Washing. Repeat step […]. • 10. Add substrate for color development: Add 100 μL of color development substrate TMB to each well, keep away from light, and incubate at room temperature for 5-30 minutes. • 11. Add Stop Solution: Add 100 μL stop solution to each well. The color changed from blue to yellow. If the color appears green or the color changes unevenly, gently tap the frame of the plate to mix well. • 12. Assay readout: Within 30 minutes, perform dual wavelength detection using a microplate reader to measure the OD at the absorption maximum at 450 nm and reference wavelengths at 570 nm or 630 nm. The calibrated OD value is the measured value at 450 nm minus the measured value at 570 nm or 630 nm.
In general terms: An ELISA detects its analyte on a solid surface through an enzyme-linked reagent.

Data set [2] can be described thus: Metabolic stability test, rat liver microsomes. In kind it is in vitro ADME. On the procedure:
• 1. Buffer A: 1.0 L of 0.1 M monobasic Potassium Phosphate buffer containing 1.0 mM EDTA • Buffer B: 1.0 L of 0.1 M Dibasic Potassium Phosphate buffer containing 1.0 mM EDTA • Buffer C: 0.1 M Potassium Phosphate buffer, 1.0 mM EDTA, at about pH 7.4 by titrating 700 mL of Buffer B with Buffer A while monitoring with the pH meter. • 2. Reference compounds (Ketanserin) and test compounds spiking solution: • 500 µM spiking solution: add 10 μL of 10 mM DMSO stock solution into […] ACN. • 1.5 µM spiking solution in microsomes (0.75 mg/mL): add 1.5 μL of 500 µM spiking solution and 18.75 μL of 20 mg/mL liver microsomes into 479.75 μL of Buffer C on ice. • 3. Prepare NADPH stock solution (6 mM) by dissolving NADPH into buffer C. • 4. Dispense 30 μL of 1.5 µM spiking solution containing 0.75 mg/mL microsomes solution to the assay plates designated for different time points (0-, 5-, 15-, 30-, 45-min) on ice. • 5. For 0-min, add 135 μL of ACN containing IS to the wells of 0-min plate and then add 15 μL of NADPH stock solution (6 mM). • 6. Pre-incubate all other plates at 37° C. for 5 minutes. • 7. Add 15 μL of NADPH stock solution (6 mM) to the plates to start the reaction and timing. • 8. At 5-min, 15-min, 30-min, and 45-min, add 135 μL of ACN containing IS to the wells of corresponding plates, respectively, to stop the reaction. • 9. After quenching, shake the plates at the vibrator (IKA, MTS 2/4) for 10 min (600 rpm/min) and then centrifuge at 5594 g for 15 min (Thermo Multifuge×3R). • 10. Transfer 50 μL of the supernatant from each well into a 96-well sample plate containing 50 μL of ultra pure water (Millipore, ZMQS50F01) for LC/MS analysis.

Some results are limits rather than exact numbers.

JAK1 JH1, sequence (P23458 875-1153): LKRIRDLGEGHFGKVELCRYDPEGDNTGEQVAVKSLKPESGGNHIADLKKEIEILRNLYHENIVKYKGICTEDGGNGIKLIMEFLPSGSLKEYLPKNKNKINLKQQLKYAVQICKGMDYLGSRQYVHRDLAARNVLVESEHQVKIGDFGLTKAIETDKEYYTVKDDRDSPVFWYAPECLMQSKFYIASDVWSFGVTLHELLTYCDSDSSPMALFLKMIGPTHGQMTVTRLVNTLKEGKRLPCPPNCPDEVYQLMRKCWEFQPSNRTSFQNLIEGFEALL

With `CCC(=O)c1cnc(NC(=O)C2CC2)cc1Nc1cccc(-c2cc(P(=O)(C3CC3)C3CC3)n(C)n2)c1OC` [Compound B37, N-(4-((3-(5-(dicyclopropylphosphoryl)-1-methyl-1H-pyrazol-3-yl)-2-methoxyphenyl)amino)-5-propionylpyridin-2-yl)cyclopropanecarboxamide], the “effect on IL-2-induced downstream STAT5 phosphorylation” value in the data set on JAK1/JAK3 pathway is listed as “no effect”. The equilibrium dissociation constant (Kd) (commonly the constant that tells how readily two partners part at equilibrium) on JAK1 JH1 was greater than 30000 nM. Further, in data set [1], the “activity compared with BMS986165” value is “more active than BMS986165” and the IC50 (as a rule, the point on the concentration scale where inhibition reaches its midpoint) was 28.2 nM.
With `[2H]C([2H])([2H])NC(=O)c1nnc(NC(=O)C2CC2)cc1Nc1cccc(-c2cc(P(=O)(C3CC3)C3CC3)n(C)n2)c1OC` [Compound B41, 6-(cyclopropanecarboxamido)-4-((3-(5-(dicyclopropylphosphoryl)-1-methyl-1H-pyrazol-3-yl)-2-methoxyphenyl)amino)-N-(methyl-d3)pyridazine-3-carboxamide], the IC50 in data set [1] worked out at 39.5 nM.
For `CCC(=O)c1cnc(NC(=O)C2CC2)cc1Nc1cccc(-c2cc(P(C)(C)=O)n(C)n2)c1OC` [Compound B2, N-(4-((3-(5-(dimethylphosphoryl)-1-methyl-1H-pyrazol-3-yl)-2-methoxyphenyl)amino)-5-propionylpyridin-2-yl)cyclopropanecarboxamide], the Kd on JAK1 JH1 was greater than 30000 nM. In addition, the “stability in rat liver microsomes (in words)” value in data set [2] (conclusion from Table 5) was “good stability”. For the same compound, the half-life at 1 μM in data set [2] (pH 7.4, rat liver microsomes, read-out: T1/2 RLM) amounted to 1.68 h. For the same compound, the “CL RLM” value in data set [2] (rat liver microsomes) is reported as 24.6 mL/min/kg.

Source of the values: US20240343747A1, “Heteroaryl compounds as inhibitors of TYK2, composition and application thereof” (Accro Bioscience (HK) Limited, priority 2021, published 2024).
